# Laboratory results published in patent US20240277713A1 (Kadmon Corporation, LLC, priority 2022, published 2024).
# Where two headings read alike, the source gives them in different places.
# Legend:
# [1] = Toxicokinetic analysis in rat plasma (Example 5); format: in vivo; conditions: for Cmax / AUC(0-t): rat, plasma; for AUC(0-t): read-out: AUC0-24
# Method: TK animals were dosed for 70 and 14 days for the males and females, respectively. Dosing of TK males and females was initiated simultaneously, continuing to euthanasia. Refrigerated daily aliquots of dosing formulations were brought to room temperature while continuously stirring for at least 30 minutes prior to dosing.
# dogs = assay: General toxicology studies in dogs; format: in vivo, dog
# [2] = Pharmacokinetics in healthy subjects; format: in vivo, human
# human serum albumin = human serum albumin (Homo sapiens, UniProt P02768); assay: Binding to human serum albumin in vitro; format: in vitro ADME
# Sequence of human serum albumin (P02768 25-609): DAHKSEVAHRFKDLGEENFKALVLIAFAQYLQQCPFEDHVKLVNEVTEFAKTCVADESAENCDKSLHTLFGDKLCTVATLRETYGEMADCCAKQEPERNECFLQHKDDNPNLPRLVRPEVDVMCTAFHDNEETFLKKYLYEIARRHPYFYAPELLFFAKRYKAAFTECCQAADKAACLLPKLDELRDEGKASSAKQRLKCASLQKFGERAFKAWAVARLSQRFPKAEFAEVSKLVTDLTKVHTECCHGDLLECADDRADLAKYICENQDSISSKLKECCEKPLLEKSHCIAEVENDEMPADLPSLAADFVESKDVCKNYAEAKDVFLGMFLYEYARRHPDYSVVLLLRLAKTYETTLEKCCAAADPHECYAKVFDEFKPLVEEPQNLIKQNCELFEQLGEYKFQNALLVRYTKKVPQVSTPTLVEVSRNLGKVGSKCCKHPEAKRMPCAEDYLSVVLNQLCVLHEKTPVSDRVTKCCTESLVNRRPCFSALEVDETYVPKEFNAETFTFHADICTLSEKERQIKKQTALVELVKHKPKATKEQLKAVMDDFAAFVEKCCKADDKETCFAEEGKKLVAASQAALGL
# [3] = target: CYP3A4, CYP2C8, CYP2D6, and UGT1A9 (Homo sapiens, UniProt P08684); assay: Metabolism in vitro; format: in vitro ADME
# Sequence of CYP3A4, CYP2C8, CYP2D6, and UGT1A9 (Homo sapiens, UniProt P08684) (P08684 2-503): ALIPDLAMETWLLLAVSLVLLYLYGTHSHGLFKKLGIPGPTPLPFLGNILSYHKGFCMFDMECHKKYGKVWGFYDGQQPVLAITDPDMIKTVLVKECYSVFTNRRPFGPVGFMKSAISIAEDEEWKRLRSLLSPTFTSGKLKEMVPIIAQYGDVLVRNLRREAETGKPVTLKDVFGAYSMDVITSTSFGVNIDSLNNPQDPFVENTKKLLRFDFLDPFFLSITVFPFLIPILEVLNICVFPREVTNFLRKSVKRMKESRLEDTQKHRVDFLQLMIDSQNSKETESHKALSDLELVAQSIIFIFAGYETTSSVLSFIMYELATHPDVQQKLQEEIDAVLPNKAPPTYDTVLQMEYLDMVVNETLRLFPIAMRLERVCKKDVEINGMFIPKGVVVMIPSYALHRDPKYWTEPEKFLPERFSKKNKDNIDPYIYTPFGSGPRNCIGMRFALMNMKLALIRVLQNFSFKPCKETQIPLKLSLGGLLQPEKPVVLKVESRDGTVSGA
# [4] = tested on: CYP3A4, CYP2C8, CYP2D6, and UGT1A9; assay: Metabolism in vitro; format: in vitro ADME
# BCRP = target: T1, BCRP (Homo sapiens, UniProt Q9UNQ0); assay: Transporter systems in vitro: BCRP; format: in vitro ADME; conditions: clinically relevant concentrations
# T1 sequence (Q9UNQ0 1-655): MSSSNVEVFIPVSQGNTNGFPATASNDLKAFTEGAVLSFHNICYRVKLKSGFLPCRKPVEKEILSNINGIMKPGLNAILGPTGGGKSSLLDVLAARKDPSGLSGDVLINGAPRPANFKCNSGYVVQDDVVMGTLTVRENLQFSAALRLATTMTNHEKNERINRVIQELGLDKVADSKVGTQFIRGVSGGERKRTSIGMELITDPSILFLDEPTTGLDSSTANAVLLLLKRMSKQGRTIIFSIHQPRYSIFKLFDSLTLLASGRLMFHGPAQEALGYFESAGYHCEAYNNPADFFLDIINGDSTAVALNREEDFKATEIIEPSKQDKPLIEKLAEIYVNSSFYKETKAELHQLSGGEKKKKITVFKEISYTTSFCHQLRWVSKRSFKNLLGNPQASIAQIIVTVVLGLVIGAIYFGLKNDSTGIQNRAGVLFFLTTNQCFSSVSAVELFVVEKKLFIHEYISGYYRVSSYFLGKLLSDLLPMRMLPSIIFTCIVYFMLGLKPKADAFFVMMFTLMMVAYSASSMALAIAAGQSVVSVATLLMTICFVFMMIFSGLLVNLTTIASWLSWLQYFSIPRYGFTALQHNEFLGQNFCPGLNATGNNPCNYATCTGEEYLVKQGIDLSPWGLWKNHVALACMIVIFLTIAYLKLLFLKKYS
# CYP1A2 = target: T2, CYP1A2 (Homo sapiens, UniProt P05177); assay: Enzyme systems in vitro: CYP1A2; format: in vitro ADME
# T2 sequence (P05177 1-516): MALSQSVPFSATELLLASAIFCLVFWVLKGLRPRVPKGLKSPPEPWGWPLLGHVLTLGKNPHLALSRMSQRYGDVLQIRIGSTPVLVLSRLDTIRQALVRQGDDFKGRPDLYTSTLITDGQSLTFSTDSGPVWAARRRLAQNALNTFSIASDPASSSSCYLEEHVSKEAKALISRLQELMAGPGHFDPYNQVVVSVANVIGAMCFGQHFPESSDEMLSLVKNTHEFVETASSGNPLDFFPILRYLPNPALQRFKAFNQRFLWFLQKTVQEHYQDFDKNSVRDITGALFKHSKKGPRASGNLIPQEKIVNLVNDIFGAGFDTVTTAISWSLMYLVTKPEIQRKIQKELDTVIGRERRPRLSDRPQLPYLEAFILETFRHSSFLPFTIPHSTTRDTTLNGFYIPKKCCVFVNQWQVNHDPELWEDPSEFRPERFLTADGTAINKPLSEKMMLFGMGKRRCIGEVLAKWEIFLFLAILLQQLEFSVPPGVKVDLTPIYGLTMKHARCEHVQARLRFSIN
# CYP2D6 = CYP2D6 (Homo sapiens, UniProt P10635); assay: Enzyme systems in vitro: CYP2D6; format: in vitro ADME
# Sequence of CYP2D6 (P10635 whole entry): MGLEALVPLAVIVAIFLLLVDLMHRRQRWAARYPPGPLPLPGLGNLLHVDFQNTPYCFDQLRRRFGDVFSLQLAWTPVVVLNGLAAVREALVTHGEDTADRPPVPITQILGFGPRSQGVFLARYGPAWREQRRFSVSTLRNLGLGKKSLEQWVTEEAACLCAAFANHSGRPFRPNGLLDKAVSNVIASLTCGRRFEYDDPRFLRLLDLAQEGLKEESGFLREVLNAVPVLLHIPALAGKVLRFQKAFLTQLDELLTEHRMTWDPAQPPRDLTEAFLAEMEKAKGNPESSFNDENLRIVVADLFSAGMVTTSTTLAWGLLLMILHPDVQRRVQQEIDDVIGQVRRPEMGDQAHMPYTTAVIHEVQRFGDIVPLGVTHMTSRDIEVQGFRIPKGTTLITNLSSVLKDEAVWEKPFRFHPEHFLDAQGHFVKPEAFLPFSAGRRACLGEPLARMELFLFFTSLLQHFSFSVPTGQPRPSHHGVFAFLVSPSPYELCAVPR
# UGT1A9 = target: T3, UGT1A9 (Homo sapiens, UniProt O60656); assay: Enzyme systems in vitro: UGT1A9; format: in vitro ADME
# T3 sequence (O60656 26-530): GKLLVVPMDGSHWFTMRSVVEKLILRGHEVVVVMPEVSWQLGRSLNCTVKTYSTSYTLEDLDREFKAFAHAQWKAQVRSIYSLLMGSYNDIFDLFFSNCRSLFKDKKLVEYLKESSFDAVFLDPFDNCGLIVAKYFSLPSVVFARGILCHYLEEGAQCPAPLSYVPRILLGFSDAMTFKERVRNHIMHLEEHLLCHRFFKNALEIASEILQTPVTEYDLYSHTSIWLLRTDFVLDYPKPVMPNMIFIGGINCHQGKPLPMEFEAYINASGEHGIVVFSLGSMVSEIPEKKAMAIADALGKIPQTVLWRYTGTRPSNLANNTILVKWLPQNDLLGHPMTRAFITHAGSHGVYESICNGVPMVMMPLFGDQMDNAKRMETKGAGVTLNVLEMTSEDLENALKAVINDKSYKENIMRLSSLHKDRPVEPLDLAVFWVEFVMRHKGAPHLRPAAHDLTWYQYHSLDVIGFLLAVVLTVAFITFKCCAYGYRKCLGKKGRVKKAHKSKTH
# [5] = Group 14 (50 mg base/kg/day), Day 1
# [6] = single oral dose of radiolabeled belumosudil
compound,measurement,setting,value
"CC(C)NC(=O)COc1cccc(-c2nc(Nc3ccc4[nH]ncc4c3)c3ccccc3n2)c1 [belumosudil, 2-{3-[4-(1H-indazol-5-ylamino)-2-quinazolinyl]phenoxy}-N-(propan-2-yl) acetamide]",AUC0-24 in rat plasma,"[1]; Day 1, belumosudil 50 mg base/kg, F",49200 ng·h/mL
same,AUC0-24 in rat plasma,"[1]; Day 1, belumosudil 50 mg base/kg, M",20100 ng·h/mL
same,AUC0-24 in rat plasma,"[1]; Day 1, belumosudil 150 mg base/kg, F",95700 ng·h/mL
same,AUC0-24 in rat plasma,"[1]; Day 1, belumosudil 150 mg base/kg, M",81600 ng·h/mL
same,AUC0-24 in rat plasma,"[1]; Day 1, belumosudil 275 mg base/kg, F",122000 ng·h/mL
same,AUC0-24 in rat plasma,"[1]; Day 1, belumosudil 275 mg base/kg, M",96400 ng·h/mL
same,AUC0-24 in rat plasma,"[1]; Day 14, belumosudil 50 mg base/kg, F",26200 ng·h/mL
same,AUC0-24 in rat plasma,"[1]; Day 14, belumosudil 150 mg base/kg, F",99500 ng·h/mL
same,AUC0-24 in rat plasma,"[1]; Day 14, belumosudil 275 mg base/kg, F",209000 ng·h/mL
same,AUC0-24 in rat plasma,"[1]; Day 70, belumosudil 50 mg base/kg, M",21600 ng·h/mL
same,AUC0-24 in rat plasma,"[1]; Day 70, belumosudil 150 mg base/kg, M",70100 ng·h/mL
same,AUC0-24 in rat plasma,"[1]; Day 70, belumosudil 275 mg base/kg, M",191000 ng·h/mL
same,"sex difference in AUC0-24, females higher than males",[1]; [5],~2.44 fold
same,"sex difference in Cmax, females higher than males",[1]; [5],approximately 2.10 fold
same,Cmax,"[1]; female, Sprague-Dawley, oral, 150 mg base/kg",9860 ng/mL
same,AUC(0-t),"[1]; female, Sprague-Dawley, oral, 150 mg base/kg/day, females",99500 ng·h/mL
same,Cmax,"[1]; female, Sprague-Dawley, po, 50 mg/kg/day",3200 ng/mL
same,AUC(0-t),"[1]; female, Sprague-Dawley, po, 50 mg/kg/day, 50 mg base/kg/day, females",26200 ng·h/mL
same,Cmax,"[1]; female, Sprague-Dawley, po, 275 mg/kg/day, Day 14, belumosudil 275 mg base/kg, F",14900 ng/mL
same,AUC(0-t),"[1]; female, Sprague-Dawley, po, 275 mg/kg/day, 275 mg base/kg/day, females",209000 ng·h/mL
same,Cmax,"[1]; female, po, 50 mg/kg/day",4540 ng/mL
same,Cmax,"[1]; female, po, 150 mg/kg/day",5670 ng/mL
same,Cmax,"[1]; female, po, 275 mg/kg/day, Day 1, belumosudil 275 mg base/kg, F",7050 ng/mL
same,Cmax,"[1]; male, Sprague-Dawley, po, 50 mg/kg/day",2480 ng/mL
same,AUC(0-t),"[1]; male, Sprague-Dawley, po, 50 mg/kg/day, 50 mg base/kg/day, males",21600 ng·h/mL
same,Cmax,"[1]; male, Sprague-Dawley, po, 150 mg/kg/day",10100 ng/mL
same,AUC(0-t),"[1]; male, Sprague-Dawley, po, 150 mg/kg/day, 150 mg base/kg/day, males",70100 ng·h/mL
same,Cmax,"[1]; male, po, 50 mg/kg/day",2170 ng/mL
same,Cmax,"[1]; male, po, 150 mg/kg/day",5370 ng/mL
same,Cmax,"[1]; male, po, 275 mg/kg/day, Day 1, belumosudil 275 mg base/kg, M",7200 ng/mL
same,Cmax,"[1]; male, po, 275 mg/kg/day, Day 70, belumosudil 275 mg base/kg, M",20400 ng/mL
same,dose with spermatozoa degeneration,dogs,35 mg/kg/day
same,Tmax,"[2]; human, in vivo, oral, single dose, read-out: delay of median Tmax with high-fat and high-calorie meal",30 min
same,Vd,"[2]; human, in vivo, single dose, geo CV % 67.7%, read-out: geometric mean volume of distribution",184 L
same,increase in AUC with high-fat and high-calorie meal compared to fasted state,[2]; single dose,2 times
same,increase in Cmax with high-fat and high-calorie meal compared to fasted state,[2]; single dose,2.2 times
same,mean (% CV) bioavailability,[2]; single dose,64% (17%)
same,radioactivity recovered in feces,[2]; [6],85%
same,radioactivity recovered in urine,[2]; [6],less than 5%
same,recovered in feces as unchanged,[2]; [6],30%
same,binding to human serum albumin,human serum albumin,99.9%
same,primary metabolizing enzyme,[3],primarily metabolized by CYP3A4
same,minor metabolizing enzymes,[4],"to a lesser extent by CYP2C8, CYP2D6, and UGT1A9"
same,BCRP inhibition,BCRP,inhibits
same,CYP1A2 inhibition,CYP1A2,inhibitor
same,CYP2D6 inhibition,CYP2D6,inhibitor
same,UGT1A9 inhibition,UGT1A9,inhibitor
